# Data as given in ChEMBL document CHEMBL1155928, “Synthesis and structure-activity relationships of berberine analogues as a novel class of low-density-lipoprotein receptor up-regulators” (2008).
# Tested on: HepG2
# Assay: Upregulation of LDLR mRNA expression in human HepG2 cells after 8 hrs by RT-PCR relative to control
# Assay type: functional
row,SMILES,Activity
1,Oc1ccc2cc3[n+](cc2c1)CCc1cc2c(cc1-3)OCO2.[Cl-],5.16
2,CCCOc1cc2cc3[n+](cc2cc1OC)CCc1cc2c(cc1-3)OCO2.[Cl-],2.35
3,COc1cc2cc3[n+](cc2c(OC)c1OC)CCc1cc2c(cc1-3)OCO2.[Cl-],3.16
4,CCOc1ccc2cc3[n+](cc2c1OCC)CCc1cc2c(cc1-3)OCO2.[Cl-],2.13
5,CCCOc1ccc2cc3[n+](cc2c1OCCC)CCc1cc2c(cc1-3)OCO2.[Cl-],2.21
6,CCOc1ccc2cc3[n+](cc2c1OC)CCc1cc2c(cc1-3)OCO2.[Cl-],2.35
7,CCCOc1ccc2cc3[n+](cc2c1)CCc1cc2c(cc1-3)OCO2.[Cl-],2.13
8,COc1ccc2cc3[n+](cc2c1)CCc1cc2c(cc1-3)OCO2.[Cl-],2
9,CCCOc1cc2c[n+]3c(cc2cc1OC)-c1cc2c(cc1CC3)OCO2.[Cl-],1.94
10,COc1cc2c[n+]3c(cc2cc1O)-c1cc2c(cc1CC3)OCO2.[Cl-],2.2
11,CCOc1cc2c[n+]3c(cc2cc1O)-c1cc2c(cc1CC3)OCO2.[Cl-],1.8
12,CCOc1cc2c[n+]3c(cc2cc1OC)-c1cc2c(cc1CC3)OCO2.[Cl-],2.17
13,CCOc1cc2cc3[n+](cc2cc1OC)CCc1cc2c(cc1-3)OCO2.[Cl-],2.1
14,COc1cc2cc3[n+](cc2cc1O)CCc1cc2c(cc1-3)OCO2.[Cl-],1.6
15,COc1cc2c[n+]3c(cc2c(OC)c1OC)-c1cc2c(cc1CC3)OCO2.[Cl-],3.01
16,CCCOc1ccc2cc3[n+](cc2c1OC)CCc1cc2c(cc1-3)OCO2.[Cl-],2.3
17,[Cl-].c1ccc2c[n+]3c(cc2c1)-c1cc2c(cc1CC3)OCO2,2.95
18,CCOc1ccc2cc3[n+](cc2c1)CCc1cc2c(cc1-3)OCO2.[Cl-],2.9
19,COc1ccc2cc3[n+](cc2c1OC)CCc1cc2c(cc1-3)OCO2.[Cl-] [BERBERINE CHLORIDE],5.3
20,COc1cc2cc3[n+](cc2cc1OC)CCc1cc2c(cc1-3)OCO2.[Cl-] [PSEUDOBERBERINE],8.5
